The values that follow are results of earlier work, collected in patent US20110301202A1, “SPLA2 INHIBITOR CONJUGATE COMPOUNDS AND METHODS OF USE” (priority 2010, published 2011).

For data set [1] the following is noted: following administration.
Where [2] appears, read: once- or twice-daily, stable CVD population, also diabetic and high baseline LDL-C subpopulations.

Take `CCc1c(C(=O)C(N)=O)c2c(OCC(=O)OC)cccc2n1Cc1ccccc1` [A-002, [[3-(2-Amino-1,2-dioxoethyl)-2-ethyl-1-(phenylmethyl)-1H-indol-4-yl]oxy]acetic acid methyl ester]: the lipid levels entry (humans) was “decreases”. Under setting [2], the LDL-C entry is recorded as “decreases”, the inflammatory marker levels entry is listed as “decreases”, the “small LDL-C particle levels” value is on record as “decreases” and the “total LDL-C particle levels” value is on record as “decreases”. For the same compound, the total cholesterol entry under setting [2] is recorded as “decreases”. The “absorption and hydrolysis of prodrug to A-001” value in data set [1] was “rapidly absorbed and hydrolyzed to A-001”.
